Data: ChEMBL document CHEMBL4823311, “Optimization of Naphthyridones into Selective TATA-Binding Protein Associated Factor 1 (TAF1) Bromodomain Inhibitors” (ACS Med Chem Lett, 2021)
Converted amounts (≈) assume the structure as drawn.

How the values were obtained:
[1] = Solubility of the compound by CAD method; format: physicochemical
[2] = target: Chromatin remodeling regulator CECR2 (Homo sapiens, UniProt Q9BXF3); assay: Inhibition of human partial length CECR2 (P423 to D543 residues) expressed in bacterial expression system by BROMOscan assay
Chromatin remodeling regulator CECR2, sequence (Q9BXF3 whole entry, the tested form may be a part): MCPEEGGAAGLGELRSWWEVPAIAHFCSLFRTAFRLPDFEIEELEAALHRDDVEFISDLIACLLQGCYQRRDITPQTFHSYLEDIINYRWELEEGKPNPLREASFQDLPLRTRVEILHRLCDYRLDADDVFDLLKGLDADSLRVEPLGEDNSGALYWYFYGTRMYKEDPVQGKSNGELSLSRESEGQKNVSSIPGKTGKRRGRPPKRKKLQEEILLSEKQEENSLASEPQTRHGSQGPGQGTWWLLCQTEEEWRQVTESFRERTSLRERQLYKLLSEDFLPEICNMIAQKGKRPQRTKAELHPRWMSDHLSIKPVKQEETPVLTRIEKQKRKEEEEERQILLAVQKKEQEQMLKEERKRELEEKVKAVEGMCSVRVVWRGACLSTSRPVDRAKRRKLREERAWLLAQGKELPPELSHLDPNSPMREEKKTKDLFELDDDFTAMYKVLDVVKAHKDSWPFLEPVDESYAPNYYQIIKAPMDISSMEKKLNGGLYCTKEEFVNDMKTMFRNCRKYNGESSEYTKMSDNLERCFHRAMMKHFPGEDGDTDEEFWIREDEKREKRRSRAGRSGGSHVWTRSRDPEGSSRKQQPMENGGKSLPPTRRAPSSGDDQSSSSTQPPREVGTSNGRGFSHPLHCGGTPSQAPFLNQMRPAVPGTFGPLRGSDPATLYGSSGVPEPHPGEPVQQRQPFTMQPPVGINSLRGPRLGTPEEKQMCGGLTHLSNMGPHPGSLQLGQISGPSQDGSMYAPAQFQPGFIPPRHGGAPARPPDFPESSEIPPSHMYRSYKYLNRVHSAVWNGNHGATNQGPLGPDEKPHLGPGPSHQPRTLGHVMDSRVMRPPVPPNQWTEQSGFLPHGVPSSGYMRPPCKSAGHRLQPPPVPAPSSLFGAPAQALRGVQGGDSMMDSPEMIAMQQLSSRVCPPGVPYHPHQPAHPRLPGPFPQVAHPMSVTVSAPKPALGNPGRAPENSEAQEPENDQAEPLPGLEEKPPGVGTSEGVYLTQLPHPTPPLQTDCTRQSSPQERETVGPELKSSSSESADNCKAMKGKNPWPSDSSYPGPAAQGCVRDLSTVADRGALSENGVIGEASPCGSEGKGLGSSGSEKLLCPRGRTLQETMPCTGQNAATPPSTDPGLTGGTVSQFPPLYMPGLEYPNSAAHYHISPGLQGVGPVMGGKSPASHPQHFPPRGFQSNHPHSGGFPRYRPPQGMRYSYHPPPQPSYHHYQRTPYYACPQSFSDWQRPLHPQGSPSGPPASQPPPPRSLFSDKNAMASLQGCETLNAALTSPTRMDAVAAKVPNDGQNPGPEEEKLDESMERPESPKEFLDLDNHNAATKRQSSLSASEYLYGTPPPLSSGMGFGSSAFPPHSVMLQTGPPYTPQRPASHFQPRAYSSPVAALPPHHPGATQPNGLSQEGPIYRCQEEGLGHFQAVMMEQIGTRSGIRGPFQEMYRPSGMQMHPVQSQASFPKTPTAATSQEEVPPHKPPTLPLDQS

[3] = Intrinsic clearance in human microsomes; format: ADME, Microsome
Peregrin = target: T1, Peregrin (Homo sapiens, UniProt P55201); assay: Inhibition of human partial length BRPF1 (E627 to G740 residues) expressed in bacterial expression system by BROMOscan assay
T1 sequence (P55201 whole entry): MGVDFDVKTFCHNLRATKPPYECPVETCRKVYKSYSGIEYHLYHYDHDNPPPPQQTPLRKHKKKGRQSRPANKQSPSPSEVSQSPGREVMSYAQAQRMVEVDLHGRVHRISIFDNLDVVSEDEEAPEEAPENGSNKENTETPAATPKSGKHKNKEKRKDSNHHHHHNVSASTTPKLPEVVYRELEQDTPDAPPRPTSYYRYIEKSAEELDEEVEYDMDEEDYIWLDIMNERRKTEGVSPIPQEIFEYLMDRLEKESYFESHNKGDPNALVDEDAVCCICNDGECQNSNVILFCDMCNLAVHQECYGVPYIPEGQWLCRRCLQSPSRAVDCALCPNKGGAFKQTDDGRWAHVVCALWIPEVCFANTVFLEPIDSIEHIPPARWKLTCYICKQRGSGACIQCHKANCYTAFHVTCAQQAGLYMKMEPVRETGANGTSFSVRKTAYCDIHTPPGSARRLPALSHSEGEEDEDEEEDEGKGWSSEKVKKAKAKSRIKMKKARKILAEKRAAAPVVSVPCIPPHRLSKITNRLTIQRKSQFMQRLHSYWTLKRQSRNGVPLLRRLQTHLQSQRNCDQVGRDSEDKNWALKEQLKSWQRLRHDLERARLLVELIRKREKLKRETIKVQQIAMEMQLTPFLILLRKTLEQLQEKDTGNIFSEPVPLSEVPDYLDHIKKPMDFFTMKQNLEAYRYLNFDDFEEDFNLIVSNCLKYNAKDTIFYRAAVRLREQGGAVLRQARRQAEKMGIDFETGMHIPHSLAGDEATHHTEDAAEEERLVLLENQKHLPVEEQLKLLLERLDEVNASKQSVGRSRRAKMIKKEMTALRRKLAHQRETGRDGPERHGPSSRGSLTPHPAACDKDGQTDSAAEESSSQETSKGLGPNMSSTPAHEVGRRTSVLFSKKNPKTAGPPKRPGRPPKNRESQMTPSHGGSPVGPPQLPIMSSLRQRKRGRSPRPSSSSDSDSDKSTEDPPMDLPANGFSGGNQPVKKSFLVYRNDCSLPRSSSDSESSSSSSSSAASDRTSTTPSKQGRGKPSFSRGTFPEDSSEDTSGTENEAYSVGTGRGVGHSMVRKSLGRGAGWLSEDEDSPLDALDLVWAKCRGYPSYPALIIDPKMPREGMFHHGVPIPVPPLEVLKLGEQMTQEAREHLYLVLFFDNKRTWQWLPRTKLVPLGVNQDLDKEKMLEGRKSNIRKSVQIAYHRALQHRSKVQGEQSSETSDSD

[4] = target: T2, Bromodomain-containing protein 9 (Homo sapiens, UniProt Q9H8M2); assay: Inhibition of human partial length BRD9 (R130 to V259 residues) expressed in bacterial expression system measured by BROMOscan assay
T2 sequence (Q9H8M2 whole entry): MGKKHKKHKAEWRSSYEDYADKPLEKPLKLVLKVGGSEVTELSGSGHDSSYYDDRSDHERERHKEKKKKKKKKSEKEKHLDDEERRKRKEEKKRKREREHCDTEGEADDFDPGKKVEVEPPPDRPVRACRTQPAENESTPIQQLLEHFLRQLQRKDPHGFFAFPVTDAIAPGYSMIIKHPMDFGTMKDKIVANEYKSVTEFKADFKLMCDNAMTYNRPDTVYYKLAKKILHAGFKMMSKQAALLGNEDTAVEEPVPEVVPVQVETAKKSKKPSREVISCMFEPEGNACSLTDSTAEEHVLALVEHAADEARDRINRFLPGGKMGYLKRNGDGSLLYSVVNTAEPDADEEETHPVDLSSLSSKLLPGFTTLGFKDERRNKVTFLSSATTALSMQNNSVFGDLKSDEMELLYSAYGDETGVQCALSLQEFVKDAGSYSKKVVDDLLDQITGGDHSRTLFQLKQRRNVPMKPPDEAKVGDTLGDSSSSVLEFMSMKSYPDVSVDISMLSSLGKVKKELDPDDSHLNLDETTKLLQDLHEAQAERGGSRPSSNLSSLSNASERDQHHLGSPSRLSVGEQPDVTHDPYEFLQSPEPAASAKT

Work on `Cc1cc2c(C3=CCOCC3)cnc(NC3CCN(C(=O)C(F)(F)CN)CC3)c2[nH]c1=O` yielded a solubility [1] of 24 µg/mL (≈ 53.6 µM), a Ki [2] of 1000 nM and a CLint scaled [3] of 20.4 mL/min/kg. The Ki (Peregrin) was 5010 nM and the Ki [4] was 39.8 nM.
